Earlier results in patent US20160165928A1, “METHODS OF REDUCING METHANE EMISSION DERIVED FROM RUMINAL FERMENTATION WHILE SIMULTANEOUSLY REDUCING RISK OF NITRATE INTOXICATION” (Grasp Indústria e Comércio Ltda., priority 2011, published 2016).

What was measured:
[1] = tested on: methane produced by rumen fermentation; settings: in vivo
[2] = tested on: ruminal accumulation of nitrite; settings: in vivo

SMILES | methane emission in ruminants [1] | ruminal accumulation of nitrite [2] | other results
O=[N+]([O-])[O-].O=[N+]([O-])[O-].[Ca+2] [calcium nitrate] | reduced methane emission | – | –
O=S(=O)([O-])[O-].[Cu+2] [copper sulfate] | – | reduction of ruminal accumulation of nitrite | intoxication risks [2]: minimization of intoxication risks
O=S(=O)([O-])[O-].[Mg+2] [magnesium sulfate] | – | reduction of ruminal accumulation of nitrite | –
O=[N+]([O-])[O-].[K+] [potassium nitrate] | reduced methane emission | – | –
O=[N+]([O-])[O-].[Na+] [sodium nitrate] | reduced methane emission | – | –
O=S(=O)([O-])[O-].[Na+].[Na+] [sodium sulfate] | – | reduction of ruminal accumulation of nitrite | –
[Na+].[Na+].[O]=[W](=[O])([O-])[O-] [sodium tungstate] | – | – | inhibition of nitrate reductase (nitrate reductase): inhibit nitrate reductase
